Assays:
[1] = tested on: Y397 phosphorylation of FAK; experiment: Western blotting with Y397 FAK antibody, Panc-1 cells; type: cell-based, human; conditions: 24 hours
Description: (§1) Cell Viability Assay—The Cells were treated with peptides for 24 hours at different peptide concentrations. The 3-(4,5-dimethylthiazol-2-yl)-5-(3-carboxymethoxyphenyl)-2-(4-sulfophenyl)-2H-tetrazolium compound from Promega Viability kit (Madison, Ill.) was added, and the cells were incubated at 37° C. for 1-2 hours. The optical density on 96-plate was analyzed with a microplate reader at 490 nm to determine cell viability. In addition, cells were stained with trypan blue after 24 hours of treatment with Y15 and the percent of cells that stained positive were determined with a hemacytometer. Cell adhesion assay—The poly-L-Lysine or Collagen (5 μg/ml) coated 96-well plates were blocked with the blocking buffer (medium with 0.5% BSA) for 1 hour at 37 C. The cells were pre-treated with drugs for 3 hours and plated for adhesion at 4×10^5 cells. Cells were incubated at 37 C for 1 hour, fixed in 3.7% formaldehyde, washed in 0.1% BSA in PBS and stained with crystal violet (5 mg/ml in 2% ethanol) for 10 minutes. Then 2% SDS was added to the dried plated and OD at 590 nm was measured for detecting cell adhesion. […] Protein concentrations were determined using a Bio-Rad Kit. The boiled samples were loaded on Ready SDS-10% PAGE gels (Bio Rad, Inc) and used for Western blot analysis with the protein-specific antibody. […] Detachment Assay—Cells were plated with and without inhibitors for 24 hours, and detached and attached cells were counted in a hemocytometer. We calculated the percent of detachment by dividing the number of detached cells by the total number of cells. The percent of detached cells was calculated in three independent experiments. […] The percent of apoptotic cells was calculated as a ratio of apoptotic detached cells divided by the total number of cells in three independent experiments in several fields with the fluorescent microscope. For each experiment 300 cells per treatment were counted. […]

[2] = tested on: VEGFR-3 phosphorylation; experiment: Phosphorylation of VEGFR-3 in cells; type: cell-based; conditions: not shown
Description: (§2) Cell Viability Assay—The Cells were treated with peptides for 24 hours at different peptide concentrations. The 3-(4,5-dimethylthiazol-2-yl)-5-(3-carboxymethoxyphenyl)-2-(4-sulfophenyl)-2H-tetrazolium compound from Promega Viability kit (Madison, Ill.) was added, and the cells were incubated at 37° C. for 1-2 hours. The optical density on 96-plate was analyzed with a microplate reader at 490 nm to determine cell viability. In addition, cells were stained with trypan blue after 24 hours of treatment with Y15 and the percent of cells that stained positive were determined with a hemacytometer. […] Then 2% SDS was added to the dried plated and OD at 590 nm was measured for detecting cell adhesion. […] Protein concentrations were determined using a Bio-Rad Kit. The boiled samples were loaded on Ready SDS-10% PAGE gels (Bio Rad, Inc) and used for Western blot analysis with the protein-specific antibody. […] Detachment Assay—Cells were plated with and without inhibitors for 24 hours, and detached and attached cells were counted in a hemocytometer. We calculated the percent of detachment by dividing the number of detached cells by the total number of cells. The percent of detached cells was calculated in three independent experiments. […] For each experiment 300 cells per treatment were counted. […]

[3] = tested on: Panc-1 tumor cells; experiment: Panc-1 subcutaneous tumor growth in nude mice; type: in vivo; conditions: 30 mg/kg each, daily intraperitoneal
Description: as §2

[4] = tested on: total FAK phosphorylation; experiment: FAK immunoprecipitation and Western blotting with P-tyrosine antibody, BT474; type: cell-based; conditions: IP with FAK antibody
Description: as §2

[5] = Tolerability in nude mice in tumor growth inhibition experiments; type: in vivo
Description: as §2

[6] = tested on: pancreatic tumor cells; experiment: Cell adhesion assay on collagen-coated plates, pancreatic tumor cells; type: cell-based, human
Description: as §2

[7] = tested on: resistant breast cancer cells with overexpressed Src and activated FAK; experiment: Cell viability in resistant breast cancer cells; type: cell-based; conditions: not shown
Description: as §2

[8] = tested on: BT474 breast cancer cells; experiment: BT474 subcutaneous tumor growth in nude mice; type: in vivo
Description: as §1, with “counted. In vitro Kinase Assay—10 μCi of [γ-^32P]-ATP in a kinase buffer (20 mM HEPES, pH 7.4, 5 mM MgCl2, 5 mM MnCl2, 0.1 mM Na3VO4 with 0.1 μg of purified FAK protein were incubated in a kinase buffer with 10 μCi of [γ-^32P]-ATP. The kinase reaction was performed for 5 minutes at room temperature and stopped by addition of 2× Laemmli buffer. Proteins were separated on a Ready SDS-10% PAGE gel, and the phosphorylated enolase was visualized by autoradiography. KinaseProfiler screening—Kinase specificity screening was performed with KinaseProfiler™ Service (Millipore) available on http://www.millipore.com/drugdiscovery/dd3/KinaseProfiler.” for “counted.”

[9] = tested on: FAK-Y397 phosphorylation; experiment: FAK-Y397 levels in Panc-1 tumors by Western blotting; type: in vivo, mice; conditions: 30 mg/kg, day 36, vs PBS
Description: as §2

[10] = tested on: tumor associated fibroblasts; experiment: Trypan blue staining, tumor associated fibroblasts; type: cell-based; conditions: increasing doses, 24 hours
Description: as §2

[11] = tested on: BT474 cells; experiment: Apoptosis assay (Hoechst staining), BT474; type: cell-based
Description: as §1, with “counted. In vitro Kinase Assay—10 μCi of [γ-^32P]-ATP in a kinase buffer (20 mM HEPES, pH 7.4, 5 mM MgCl2, 5 mM MnCl2, 0.1 mM Na3VO4 with 0.1 μg of purified FAK protein were incubated in a kinase buffer with 10 μCi of [γ-^32P]-ATP. The kinase reaction was performed for 5 minutes at room temperature and stopped by addition of 2× Laemmli buffer. Proteins were separated on a Ready SDS-10% PAGE gel, and the phosphorylated enolase was visualized by autoradiography. KinaseProfiler screening—Kinase specificity screening was performed with KinaseProfiler™ Service (Millipore) available on http://www.millipore.com/drugdiscovery/dd3/KinaseProfiler.” for “counted.”

For `Cl.Cl.Cl.Cl.Nc1cc(N)c(N)cc1N` [Y15, 1,2,4,5-benzenetetraamine tetrahydrochloride], the “inhibition of Y397 phosphorylation compared with TAE226” value ([1]; 100 μM) was “same or better inhibition as TAE226”, the “dose from which Y397 phosphorylation of FAK was inhibited” value [1] was 0.1 µM and the “total FAK level” value ([1]; higher doses) was “down regulated”. The “phosphorylation of VEGFR-3” value [2] was “did not inhibit”, the tumor growth [3] was “inhibited tumor growth even better than gemcitabine alone” and the “total FAK phosphorylation (P-tyrosine)” value [4] was “blocked total phosphorylation of FAK”. The optimal non-toxic dose ([5]; IP, nude mice) was 30 mg/kg, the “animal weight loss or death” value ([5]; intraperitoneal 30 mg/kg, 5 days/week, 36 days) was “No animal weight loss or death was observed” and the cell adhesion ([6]; 50 μM) was “decreased adhesion in a similar fashion to 50 μM of TAE226”. For the same molecule, the “dose from which cell adhesion was significantly decreased” value ([6]; collagen-coated plates) was 10 µM, the cell viability [7] was “effectively blocked cell viability” and the tumor growth ([8]; 30 mg/kg IP, 5 days/week) was “significantly blocked tumor growth”. The “inhibition of tumor growth” value ([8]; 30 mg/kg, alone) was greater than 74%, the tumor volume ([8]; 30 mg/kg, day 23, vs untreated) was “significantly less than in untreated samples” and the tumor weight ([8]; 30 mg/kg, day 23, vs untreated mice) was “significantly reduced tumor weight”. For the same molecule, the “Y397 phosphorylation in tumors” value [9] was “lower levels of Y397 phosphorylation”, the “cell viability (trypan blue)” value [10] was “no significant decrease in viability” and the “apoptotic nuclei (Hoechst)” value ([11]; 200 μM) was “No apoptotic nuclei were detected”. For the same molecule, the apoptotic levels ([11]; 50-100 μM) was “less than 6%”.

Source: patent publication US8314150B2, “Kinase protein binding inhibitors” (priority 2008, dated 2012)
